Assay results: US20050163707A1, “Cancer treatment” (priority 2002, published 2005)

What was measured:
[1] = test system: HT1376 bladder tumour xenografts; test: Tumour volume tripling time of HT1376 xenografts in nude mice after 90Y-hHMFG1 radioimmunotherapy and/or chemotherapy; type: in vivo, mouse (human tumour xenograft); settings: for T-C value: Cisplatin combined with 1.2 MBq radioimmunotherapy
Procedure: (§1) The human bladder tumour cell line, HT1376, and the human colon tumour cell line HT29 expressing polymorphic epithelial mucin (PEM) were cultured in RPMI 1640 tissue culture medium containing 100 U·ml^−1 penicillin and 100 μg·ml^−1 streptomycin, supplemented with 10% foetal calf serum in a humidified atmosphere of 5% carbon dioxide in air. HT1376 is a human bladder carcinoma cell line obtained from the European Collection of Animal Cell Cultures (ECACC no. 87032402). HT29 is human colon carcinoma cell line obtained from European Collection of Animal Cell Cultures (ECACC no. 91072201).
(§2) The fully humanised version of the anti-PEM antibody, HMFG1, was produced by Lonza, Slough, UK. This humanised HMFG1 (hHMFG1) was conjugated with the chelating agent […] by BioInvent, Sweden.
(§3) CITC-DTPA-conjugated hHMFG1 was radiolabelled with ^90Y in acetate buffer (pH 5.5) at room temperature for 30 minutes. Disodium EDTA was added to the reaction mixture such that the final EDTA concentration was 5 mM and left to stand at room temperature for approximately 10 min. The radiolabelled protein was then purified by size exclusion chromatography and the protein-containing fractions pooled.
(§4) Female MF1 athymic nude (nu/nu) mice were used throughout these studies. The mice were bred at the Biological Research Facility of St. George's Hospital Medical School and were housed in sterile filter cages and maintained on irradiated diet and sterile water. Tumours were established by subcutaneous injection of 5×10^6 cells in the right flank.
(§5) Humanised HMFG1 anti-PEM antibody (previously conjugated with the chelating agent CITC-DTPA) was radiolabelled with yttrium-90 (^90Y) to a specific activity of approximately 1-2 MBq per 10 μg. Mice received approximately 10 μg of protein by intravenous injection.
(§6) For combination therapy, the drug and radioimmunotherapy (RIT) were given by sequential injections into the two lateral tail veins. The drug was given either 24 h before or 24 h after the RIT. In the case of Cisplatin, this was also given at the same time as the RIT. Control mice were untreated.
(§7) Approximately three weeks after tumour inoculation, when the tumours were around 0.2 cm^3 in volume (7-8 mm in diameter), mice were divided into treatment groups of 7-8 mice each. […] Mice were injected with various doses of ^90Y-labelled hHMFG1 radioimmunotherapy (10-20 μg, 1.2-2.0 MBq) either alone or in combination with the test drug given either 24 h before or 24 h after radioimmunotherapy, or with chemotherapy or chemotherapy vehicle alone. One group of mice was left untreated as a control on some occasions when experimental animals were treated. Tumour diameters (d1, d2 and d3) were measured twice weekly in three orthogonal directions using a vernier calliper and the tumour volume (v) calculated according to the formula for an ellipsoid: [formula]
(§8) Relative tumour volume (the volume of each tumour divided by the tumour volume on the day of treatment) was calculated to minimise the effect of variation in treatment volume of the individual tumours. The end-point was defined as time for the relative tumour volume to reach 3.
(§9) The Wilcoxon rank sum test was used to compare the groups of mice receiving the various treatment protocols. A p-value <0.05 was considered to be significant.

[2] = test system: HT29 colon tumour xenografts; test: Tumour volume tripling time of HT29 xenografts in nude mice after 90Y-hHMFG1 radioimmunotherapy and/or chemotherapy; type: in vivo, mouse (human tumour xenograft); settings: for Median volume tripling time / T-C (treated minus control tripling time): 90Y-hHMFG1 1.4 MBq, combinations 24 h apart; for Effect of drug combined with radioimmunotherapy (in words) / Most effective treatment schedule: Table 2; for Most effective treatment schedule: drug combined with 90Y-hHMFG1 radioimmunotherapy
Procedure: as §1, §2, §3, §4, §5, §6, §7, §8, §9

[3] = test system: mouse model of breast cancer; settings: cited from earlier work
[4] = Table 2, HT1376 Cisplatin, Observer 1, control 21.9, 90Y-hHMFG1 1.2 MBq, Cisplatin 10 mg/kg, drug at -24 h, 0 h or +24 h relative to RIT
[5] = Table 2, HT1376 Cisplatin, Observer 1, control 21.9, 90Y-hHMFG1 1.4 MBq, Cisplatin 2 mg/kg, combination at 0 h
[6] = Table 2, HT1376 Cisplatin, Observer 1, control 21.9, 90Y-hHMFG1 1.4 MBq, Cisplatin 10 mg/kg, combination drug -24 h
[7] = Table 2, HT29 vincristine, Observer 1, control 10.2, vincristine 2 mg/kg
[8] = drug given after the 90Y-hHMFG1 radioimmunotherapy
[9] = Table 1, group with Control (18-19) 17.9, Taxotere 10 mg/kg i.v., 90Y-hHMFG1 1.2 MBq i.v., combination of both
[10] = Table 1, group with Control (25-26) 19.0, each drug 10 mg/kg i.v. alone
[11] = Table 2, HT1376 Taxotere, Observer 1, control 21.9, 90Y-hHMFG1 1.2 MBq, Taxotere 10 mg/kg, combinations 24 h apart
[12] = Table 2, HT29 gemcitabine, Observer 1, control 8.8, gemcitabine 240 mg/kg
[13] = Table 2, HT29 gemcitabine, Observer 2, control 9.5, gemcitabine 240 mg/kg
[14] = Table 2, HT29 cyclophosphamide, Observer 1, control 10.2, cyclo 200 mg/kg
[15] = Table 2, HT29 cyclophosphamide, Observer 2, control 10.7, cyclo 200 mg/kg

SMILES: N.N.[Cl][Pt][Cl] [Cisplatin]
- Median volume tripling time [1, 4]: 28.8 days
- T-C (treated minus control tripling time) [1, 4]: 6.9 days
- Median volume tripling time [1, 5]: 28.9 days
- T-C (treated minus control tripling time) [1, 5]: 7.0 days
- Median volume tripling time [1, 6]: 28.8 days
- T-C (treated minus control tripling time) [1, 6]: 6.9 days
- T-C, combined addition of the drugs administered individually ([1]; Table 2, 1.2 MBq 90Y-hHMFG1 alone plus Cisplatin 10 mg/kg alone): 7.9
- T-C value ([1]; Table 2, first dosage regime (drug -24 h per Table 2)): 44
- T-C value ([1]; Table 2, second dosage regime (0 h per Table 2)): 36.5
- T-C value ([1]; Table 2, third dosage regime (drug +24 h per Table 2)): 15.5
- Most effective treatment schedule ([1]; Table 2, drug combined with 90Y-hHMFG1 radioimmunotherapy): administer the drug 24 hours before the radioimuunotherapy
- Effect of drug combined with radioimmunotherapy (in words) ([1]; Table 2, with 90Y-hHMFG1, no matter the order of administering): synergistic effect

SMILES: CC[C@]1(O)C[C@H]2CN(CCc3c([nH]c4ccccc34)[C@@](C(=O)OC)(c3cc4c(cc3OC)N(C=O)[C@H]3[C@@](O)(C(=O)OC)[C@H](OC(C)=O)[C@]5(CC)C=CCN6CC[C@]43[C@@H]65)C2)C1 [vincristine, Vincristine]
- Median volume tripling time [2, 7]: 13.4 days
- T-C (treated minus control tripling time) [2, 7]: 3.2 days
- T-C (treated minus control tripling time) ([2]; Table 2, HT29 vincristine, Observer 2, control 10.7, vincristine 2 mg/kg): 4.0 days
- Effect of drug combined with radioimmunotherapy (in words) ([2]; drug administered before the 90Y-hHMFG1 radioimmunotherapy): also effective when administered before the radioimmunotherapy although to a slightly lesser extent
- Most effective treatment schedule [2]: most effective when given after the radioimmunotherapy
- Effect of drug combined with radioimmunotherapy (in words) [2, 8]: synergistic effect over the mere additive effect

SMILES: CC(=O)O[C@@]12CO[C@@H]1C[C@H](O)[C@@]1(C)C(=O)[C@H](O)C3=C(C)[C@@H](OC(=O)[C@H](O)[C@@H](NC(=O)OC(C)(C)C)c4ccccc4)C[C@@](O)([C@@H](OC(=O)c4ccccc4)[C@H]21)C3(C)C [Taxotere ®, Docetaxel]
- Median volume tripling time [1, 9]: 43.8 days
- T-C (treated minus control tripling time) [1, 9]: 25.9 days
- Median volume tripling time [1, 10]: 41.2 days
- T-C (treated minus control tripling time) [1, 10]: 22.2 days
- Median volume tripling time [1, 11]: 43.5 days
- T-C (treated minus control tripling time) [1, 11]: 21.6 days

SMILES: COc1cccc2c1C(=O)c1c(O)c3c(c(O)c1C2=O)C[C@@](O)(C(=O)CO)C[C@@H]3O[C@H]1C[C@H](N)[C@H](O)[C@H](C)O1 [Dox]
- T-C (treated minus control tripling time) [1, 10]: 33.9 days
- Median volume tripling time ([1]; in vivo): 52.9 days

SMILES: Nc1ccn([C@@H]2O[C@H](CO)[C@@H](O)C2(F)F)c(=O)n1 [gemcitabine, Gemcitabine]
- Median volume tripling time [2, 12]: 15.4 days
- T-C (treated minus control tripling time) [2, 12]: 6.6 days
- Median volume tripling time [2, 13]: 12.8 days
- T-C (treated minus control tripling time) [2, 13]: 3.3 days
- Effect of drug combined with radioimmunotherapy (in words) ([2]; drug and 90Y-hHMFG1 radioimmunotherapy given in combination): overall increase in T-C values

SMILES: O=P1(N(CCCl)CCCl)NCCCO1 (stereo not shown) [cyclo, Cyclophosphamide]
- Median volume tripling time [2, 14]: 15.5 days
- T-C (treated minus control tripling time) [2, 14]: 5.3 days
- Median volume tripling time [2, 15]: 14.1 days
- T-C (treated minus control tripling time) [2, 15]: 3.4 days
- Most effective treatment schedule [2]: most effective when given after the radioimmunotherapy
- Effect of drug combined with radioimmunotherapy (in words) [2, 8]: synergistic effect over the mere additive effect

SMILES: CC(=O)O[C@H]1C(=O)[C@@]2(C)[C@H]([C@H](OC(=O)c3ccccc3)[C@]3(O)C[C@H](OC(=O)[C@H](O)[C@@H](NC(=O)c4ccccc4)c4ccccc4)C(C)=C1C3(C)C)[C@]1(OC(C)=O)CO[C@@H]1C[C@@H]2O [Taxol ®, paclitaxel]
- Optimum time for Taxol administration after 90Y-ChL6 [3]: 6 to 24 h
- Median volume tripling time [1, 10]: 30.2 days
- T-C (treated minus control tripling time) [1, 10]: 11.2 days
